Reference: PMC6746079, “Development of Pyridine-based Inhibitors for the Human Vaccinia-related Kinases 1 and 2” (ACS Medicinal Chemistry Letters, 2019)

Tested on: HeLa cells
Format: cell-based, human
Settings: MTT, concluding statement

Structure (SMILES): Cc1ncc(-c2cc(F)c(O)c(F)c2)cc1-c1cc(F)c(O)c(F)c1 [compound 26]
- toxicity to human cells: not overtly toxic
